In brackets after ≈: the same amount, converted by molar mass. Several values for one entry are separate records, joined by “and”; a condition that tells them apart may be missing. Equal values may be shown once. Read-outs that look alike come from different tables or passages of the source.
What was measured:
[1] = target: KDR(h) (Homo sapiens, UniProt P35968); test: biochemical; design: In vitro kinase panel profiling, per cent remaining kinase activity at 10 uM; details: atp_concentration=90, read-out: % of control remaining
Chain of KDR(h) (P35968 whole entry): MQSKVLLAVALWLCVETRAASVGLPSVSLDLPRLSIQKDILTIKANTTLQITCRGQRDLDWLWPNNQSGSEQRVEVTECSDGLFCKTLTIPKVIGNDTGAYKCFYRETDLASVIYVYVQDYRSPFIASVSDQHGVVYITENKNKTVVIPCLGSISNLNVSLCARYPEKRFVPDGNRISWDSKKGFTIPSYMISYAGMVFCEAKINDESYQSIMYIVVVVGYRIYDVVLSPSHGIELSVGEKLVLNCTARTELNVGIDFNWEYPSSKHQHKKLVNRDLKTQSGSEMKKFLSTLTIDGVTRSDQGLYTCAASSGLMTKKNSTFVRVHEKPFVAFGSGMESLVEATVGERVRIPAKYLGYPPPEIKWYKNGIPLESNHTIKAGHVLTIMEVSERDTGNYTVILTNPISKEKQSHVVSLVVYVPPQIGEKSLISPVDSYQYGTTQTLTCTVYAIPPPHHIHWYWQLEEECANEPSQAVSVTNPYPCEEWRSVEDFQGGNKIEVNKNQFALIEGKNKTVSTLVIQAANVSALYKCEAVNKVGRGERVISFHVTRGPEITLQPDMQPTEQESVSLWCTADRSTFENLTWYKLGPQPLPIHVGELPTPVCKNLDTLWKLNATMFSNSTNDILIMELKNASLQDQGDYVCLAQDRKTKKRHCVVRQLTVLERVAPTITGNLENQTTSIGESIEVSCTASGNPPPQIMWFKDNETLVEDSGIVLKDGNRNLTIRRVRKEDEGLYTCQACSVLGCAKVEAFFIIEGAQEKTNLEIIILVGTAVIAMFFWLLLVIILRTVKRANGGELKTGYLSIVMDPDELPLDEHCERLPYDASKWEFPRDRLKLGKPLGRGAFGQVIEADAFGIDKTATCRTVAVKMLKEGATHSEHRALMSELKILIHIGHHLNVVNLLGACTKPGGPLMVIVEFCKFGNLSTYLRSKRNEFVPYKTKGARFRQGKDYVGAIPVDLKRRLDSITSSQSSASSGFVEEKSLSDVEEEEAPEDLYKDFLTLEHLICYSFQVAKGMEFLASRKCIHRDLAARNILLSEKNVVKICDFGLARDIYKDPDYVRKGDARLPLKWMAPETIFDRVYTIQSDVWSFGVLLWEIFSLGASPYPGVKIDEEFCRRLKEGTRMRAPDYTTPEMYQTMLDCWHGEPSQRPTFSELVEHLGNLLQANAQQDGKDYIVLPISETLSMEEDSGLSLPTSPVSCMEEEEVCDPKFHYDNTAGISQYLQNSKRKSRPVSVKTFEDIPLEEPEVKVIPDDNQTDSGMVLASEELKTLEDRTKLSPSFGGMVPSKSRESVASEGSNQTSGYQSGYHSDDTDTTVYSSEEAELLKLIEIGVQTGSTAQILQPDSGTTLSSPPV
From the text: (§1) We derisk potential for off-target activity by profiling the compound in a CEREP panel, a standard secondary pharmacology assessment, as well as a kinase panel to derisk a potential hinge-binding motif in our leads, and a PARP panel to derisk activity against human […]. Reassuringly, the compounds are selective, with the only off-targets being moderate human CHRM2 and KOR receptors activity associated with ASAP-0011198.

[2] = target: Plk3(h) (Homo sapiens, UniProt Q9H4B4); test: biochemical; design: In vitro kinase panel profiling, per cent remaining kinase activity at 10 uM; details: atp_concentration=70, read-out: % of control remaining
Chain of Plk3(h) (Q9H4B4 whole entry): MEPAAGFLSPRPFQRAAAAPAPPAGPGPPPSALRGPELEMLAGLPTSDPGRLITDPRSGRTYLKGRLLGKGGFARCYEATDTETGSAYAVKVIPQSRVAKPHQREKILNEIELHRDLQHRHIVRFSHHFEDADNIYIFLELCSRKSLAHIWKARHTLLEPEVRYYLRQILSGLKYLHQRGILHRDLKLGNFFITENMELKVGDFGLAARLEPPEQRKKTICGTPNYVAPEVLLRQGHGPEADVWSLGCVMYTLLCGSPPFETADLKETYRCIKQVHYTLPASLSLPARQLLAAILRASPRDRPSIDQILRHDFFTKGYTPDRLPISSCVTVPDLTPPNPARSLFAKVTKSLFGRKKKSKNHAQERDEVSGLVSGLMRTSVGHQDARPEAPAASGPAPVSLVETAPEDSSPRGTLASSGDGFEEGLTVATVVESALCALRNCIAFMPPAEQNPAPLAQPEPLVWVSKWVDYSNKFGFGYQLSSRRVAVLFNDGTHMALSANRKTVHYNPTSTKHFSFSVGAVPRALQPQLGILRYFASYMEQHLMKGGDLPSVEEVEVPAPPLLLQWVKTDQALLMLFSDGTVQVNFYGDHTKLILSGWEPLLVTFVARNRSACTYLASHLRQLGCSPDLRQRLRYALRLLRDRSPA
From the text: as §1

[3] = target: CDK9/cyclin T1(h) (Homo sapiens, UniProt P50750); test: biochemical; design: In vitro kinase panel profiling, per cent remaining kinase activity at 10 uM; details: atp_concentration=45, read-out: % of control remaining
From the text: as §1

[4] = target: CDK7/cyclinH/MAT1(h) (Homo sapiens, UniProt P50613); test: biochemical; design: In vitro kinase panel profiling, per cent remaining kinase activity at 10 uM; details: atp_concentration=90, read-out: % of control remaining
Chain of CDK7/cyclinH/MAT1(h) (P50613 whole entry): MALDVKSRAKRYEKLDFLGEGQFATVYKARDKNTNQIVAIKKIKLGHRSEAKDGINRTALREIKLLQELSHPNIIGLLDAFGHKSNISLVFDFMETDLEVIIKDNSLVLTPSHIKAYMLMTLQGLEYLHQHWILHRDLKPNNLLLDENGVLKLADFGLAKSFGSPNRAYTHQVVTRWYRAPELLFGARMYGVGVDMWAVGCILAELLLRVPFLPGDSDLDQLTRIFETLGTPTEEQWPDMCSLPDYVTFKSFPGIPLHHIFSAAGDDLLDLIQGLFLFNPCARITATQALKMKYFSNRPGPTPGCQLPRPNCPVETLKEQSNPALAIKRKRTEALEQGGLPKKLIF
Chain of CDK7/cyclinH/MAT1(h) (P51946 whole entry partner): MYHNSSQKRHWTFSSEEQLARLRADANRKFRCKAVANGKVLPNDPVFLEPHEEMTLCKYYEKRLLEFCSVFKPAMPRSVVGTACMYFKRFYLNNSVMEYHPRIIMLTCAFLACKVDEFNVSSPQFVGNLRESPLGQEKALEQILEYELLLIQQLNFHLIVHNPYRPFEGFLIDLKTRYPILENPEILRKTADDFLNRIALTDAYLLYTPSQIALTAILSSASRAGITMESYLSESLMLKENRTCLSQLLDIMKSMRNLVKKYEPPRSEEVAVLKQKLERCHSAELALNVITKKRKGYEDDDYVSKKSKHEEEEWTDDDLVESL
Chain of CDK7/cyclinH/MAT1(h) (P51948 whole entry partner): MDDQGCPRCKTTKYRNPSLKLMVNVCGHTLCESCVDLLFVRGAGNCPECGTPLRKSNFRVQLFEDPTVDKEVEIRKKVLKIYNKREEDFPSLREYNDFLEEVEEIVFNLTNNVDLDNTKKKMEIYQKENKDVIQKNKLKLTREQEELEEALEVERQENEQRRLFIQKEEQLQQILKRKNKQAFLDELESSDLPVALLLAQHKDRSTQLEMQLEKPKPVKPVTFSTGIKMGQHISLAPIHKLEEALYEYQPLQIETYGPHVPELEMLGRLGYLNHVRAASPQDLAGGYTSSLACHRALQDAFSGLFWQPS
From the text: as §1

[5] = target: T1, IKKα(h) (Homo sapiens, UniProt O15111); test: biochemical; design: In vitro kinase panel profiling, per cent remaining kinase activity at 10 uM; details: atp_concentration=10, read-out: % of control remaining
T1 construct: gene CHUK
T1 sequence (O15111 1-745): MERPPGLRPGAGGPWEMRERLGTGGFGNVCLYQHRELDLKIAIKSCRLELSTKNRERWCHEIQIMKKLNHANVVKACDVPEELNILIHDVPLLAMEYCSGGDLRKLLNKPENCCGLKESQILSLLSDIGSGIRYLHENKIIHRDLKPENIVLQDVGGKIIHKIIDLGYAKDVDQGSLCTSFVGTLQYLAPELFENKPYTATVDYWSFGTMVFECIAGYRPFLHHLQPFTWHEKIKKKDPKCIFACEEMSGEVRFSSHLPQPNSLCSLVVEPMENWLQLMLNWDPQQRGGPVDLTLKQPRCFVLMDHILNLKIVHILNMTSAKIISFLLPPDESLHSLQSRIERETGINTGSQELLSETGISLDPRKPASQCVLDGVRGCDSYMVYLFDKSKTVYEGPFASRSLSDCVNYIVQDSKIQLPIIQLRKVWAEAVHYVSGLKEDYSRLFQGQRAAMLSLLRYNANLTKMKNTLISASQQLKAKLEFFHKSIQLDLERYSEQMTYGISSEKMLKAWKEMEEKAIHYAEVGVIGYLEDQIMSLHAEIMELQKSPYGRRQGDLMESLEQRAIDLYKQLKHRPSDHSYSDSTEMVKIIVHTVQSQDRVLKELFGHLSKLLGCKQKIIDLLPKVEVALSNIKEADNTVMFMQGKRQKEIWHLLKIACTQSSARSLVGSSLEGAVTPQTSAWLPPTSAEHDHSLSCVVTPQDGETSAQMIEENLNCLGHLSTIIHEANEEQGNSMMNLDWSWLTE
From the text: as §1

[6] = target: T2, MSK2(h) (Homo sapiens, UniProt O75676); test: biochemical; design: In vitro kinase panel profiling, per cent remaining kinase activity at 10 uM; details: atp_concentration=45, read-out: % of control remaining
T2 construct: gene RPS6KA4
From the text: as §1

[7] = target: JAK2(h) (Homo sapiens, UniProt O60674); test: biochemical; design: In vitro kinase panel profiling, per cent remaining kinase activity at 10 uM; details: atp_concentration=45, read-out: % of control remaining
From the text: as §1

[8] = target: T3, PRAK(h) (Homo sapiens, UniProt Q8IW41); test: biochemical; design: In vitro kinase panel profiling, per cent remaining kinase activity at 10 uM; details: atp_concentration=15, read-out: % of control remaining
T3 construct: gene MAPKAPK5
T3 sequence (Q8IW41 1-473): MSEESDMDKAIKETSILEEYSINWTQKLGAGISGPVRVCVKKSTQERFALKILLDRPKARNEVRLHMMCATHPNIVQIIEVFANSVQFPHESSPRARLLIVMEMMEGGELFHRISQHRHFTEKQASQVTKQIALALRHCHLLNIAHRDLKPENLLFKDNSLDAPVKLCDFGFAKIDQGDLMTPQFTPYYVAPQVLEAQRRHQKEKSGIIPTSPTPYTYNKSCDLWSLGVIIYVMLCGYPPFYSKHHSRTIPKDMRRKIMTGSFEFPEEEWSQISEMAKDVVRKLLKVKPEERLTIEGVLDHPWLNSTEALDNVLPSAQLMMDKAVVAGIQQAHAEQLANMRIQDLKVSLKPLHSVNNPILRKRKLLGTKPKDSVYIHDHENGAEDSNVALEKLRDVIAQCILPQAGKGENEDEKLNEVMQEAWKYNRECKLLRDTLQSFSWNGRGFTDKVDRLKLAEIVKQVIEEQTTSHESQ
From the text: as §1

[9] = target: T4, Pim-1(h) (Homo sapiens, UniProt P11309); test: biochemical; design: In vitro kinase panel profiling, per cent remaining kinase activity at 10 uM; details: atp_concentration=90, read-out: % of control remaining
T4 construct: gene PIM1
T4 sequence (P11309 whole entry): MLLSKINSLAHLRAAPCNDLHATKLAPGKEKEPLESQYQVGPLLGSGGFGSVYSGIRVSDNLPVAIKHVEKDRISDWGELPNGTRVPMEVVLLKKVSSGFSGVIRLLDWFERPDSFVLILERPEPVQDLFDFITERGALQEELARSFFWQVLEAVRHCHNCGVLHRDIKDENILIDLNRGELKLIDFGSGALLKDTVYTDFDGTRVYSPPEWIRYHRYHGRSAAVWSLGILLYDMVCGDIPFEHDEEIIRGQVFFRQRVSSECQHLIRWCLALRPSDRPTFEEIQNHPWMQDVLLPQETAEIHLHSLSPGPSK
From the text: as §1

[10] = target: T5, ROCK-I(h) (Homo sapiens, UniProt Q13464); test: biochemical; design: In vitro kinase panel profiling, per cent remaining kinase activity at 10 uM; details: atp_concentration=70, read-out: % of control remaining
T5 construct: gene ROCK1
T5 sequence (Q13464 whole entry): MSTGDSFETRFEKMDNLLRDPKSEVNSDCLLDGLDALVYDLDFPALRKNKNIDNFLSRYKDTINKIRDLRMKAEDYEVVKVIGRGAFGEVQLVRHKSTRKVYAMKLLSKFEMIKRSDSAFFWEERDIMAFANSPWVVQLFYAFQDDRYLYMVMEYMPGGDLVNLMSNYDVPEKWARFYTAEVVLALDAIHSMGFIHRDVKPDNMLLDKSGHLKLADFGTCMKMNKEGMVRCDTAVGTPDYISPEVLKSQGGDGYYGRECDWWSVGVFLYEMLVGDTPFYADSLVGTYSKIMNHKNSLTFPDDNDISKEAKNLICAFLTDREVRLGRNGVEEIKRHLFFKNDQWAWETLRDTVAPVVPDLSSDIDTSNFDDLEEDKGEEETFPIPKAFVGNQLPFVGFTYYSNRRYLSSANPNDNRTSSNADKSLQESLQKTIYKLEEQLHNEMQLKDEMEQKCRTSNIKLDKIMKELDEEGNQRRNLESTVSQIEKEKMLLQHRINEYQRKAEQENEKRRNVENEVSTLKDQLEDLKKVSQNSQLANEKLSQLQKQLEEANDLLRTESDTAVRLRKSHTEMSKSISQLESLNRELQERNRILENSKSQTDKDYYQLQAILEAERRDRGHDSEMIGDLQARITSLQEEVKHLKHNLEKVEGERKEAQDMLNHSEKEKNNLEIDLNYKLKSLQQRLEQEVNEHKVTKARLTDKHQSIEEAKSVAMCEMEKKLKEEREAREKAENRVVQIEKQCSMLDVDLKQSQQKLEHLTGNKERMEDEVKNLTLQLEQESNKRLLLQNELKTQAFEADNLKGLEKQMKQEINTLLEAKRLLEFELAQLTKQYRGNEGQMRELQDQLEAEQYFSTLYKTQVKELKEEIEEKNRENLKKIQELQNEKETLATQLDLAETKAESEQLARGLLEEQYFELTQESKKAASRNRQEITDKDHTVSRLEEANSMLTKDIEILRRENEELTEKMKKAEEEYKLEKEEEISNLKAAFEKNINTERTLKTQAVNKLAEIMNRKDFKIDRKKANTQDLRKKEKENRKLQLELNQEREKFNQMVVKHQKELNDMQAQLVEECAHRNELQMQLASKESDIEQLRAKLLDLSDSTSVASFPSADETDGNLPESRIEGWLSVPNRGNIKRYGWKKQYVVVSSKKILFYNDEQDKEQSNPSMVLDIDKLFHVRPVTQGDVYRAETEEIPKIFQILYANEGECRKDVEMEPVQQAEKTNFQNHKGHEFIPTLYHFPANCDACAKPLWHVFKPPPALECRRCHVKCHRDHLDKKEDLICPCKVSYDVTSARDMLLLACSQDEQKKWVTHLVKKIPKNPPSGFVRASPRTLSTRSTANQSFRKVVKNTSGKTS
From the text: as §1

[11] = target: T6, p70S6K(h) (Homo sapiens, UniProt P23443); test: biochemical; design: In vitro kinase panel profiling, per cent remaining kinase activity at 10 uM; details: atp_concentration=15, read-out: % of control remaining
T6 construct: gene RPS6KB1
From the text: as §1

[12] = Permeability Papp (AB) MDR1/MDCKII; details: for perc_recovery_a_to_b_mean / perc_recovery_a_to_b_inhibitor_mean: recovery A to B; for perc_recovery_b_to_a_mean / perc_recovery_b_to_a_inhibitor_mean: recovery B to A; for perc_recovery_a_to_b_inhibitor_mean / perc_recovery_b_to_a_inhibitor_mean: MDR1-MDCKII; for papp_b_to_a_mean: B to A
[13] = In vitro kinetic solubility; details: for solubility_mean: In vitro kinetic solubility, ph 7.4
[14] = LogD
[15] = In vitro MDR1-MDCKII permeability, no inhibitor

Cc1nn(C)cc1-c1cc2c(NC(c3ccc4c(c3)S(=O)(=O)CCC4)C(C)C)ncnc2[nH]1 (stereo not drawn) [ASAP-0011446]
remaining activity at 10 µM ([1]; batch_name=ASAP-0011446-002): 88% | remaining activity at 10 µM ([2]; batch_name=ASAP-0011446-002): 104% | remaining activity at 10 µM ([3]; batch_name=ASAP-0011446-002): 57% | remaining activity at 10 µM ([4]; batch_name=ASAP-0011446-002): 93% | remaining activity at 10 µM ([5]; batch_name=ASAP-0011446-002): 94% | remaining activity at 10 µM ([6]; batch_name=ASAP-0011446-002): 105% | remaining activity at 10 µM ([7]; batch_name=ASAP-0011446-002): 111% | remaining activity at 10 µM ([8]; batch_name=ASAP-0011446-002): 82% | remaining activity at 10 µM ([9]; batch_name=ASAP-0011446-002): 95% | remaining activity at 10 µM ([10]; batch_name=ASAP-0011446-002): 103% | remaining activity at 10 µM ([11]; batch_name=ASAP-0011446-002): 108% | papp_a_to_b_mean ([12]; In vitro MDR1-MDCKII permeability, A to B, mean): 4.36 ×10⁻⁶ cm/s | perc_recovery_a_to_b_mean ([12]; In vitro MDR1-MDCKII permeability, mean): 77.0% | perc_recovery_a_to_b_mean [12, 15]: 69.7% | perc_recovery_b_to_a_mean [12, 15]: 63.5% | perc_recovery_a_to_b_inhibitor_mean ([12]; with inhibitor Verapamil): 87.7% | perc_recovery_b_to_a_inhibitor_mean ([12]; with inhibitor Verapamil): 93.0% | Papp A→B ([12]; dog, MDCK-MDR1, Papp (AB) MDR1/MDCKII, A to B): 4.4 ×10⁻⁶ cm/s | solubility kinetic [13]: 65 µM (≈ 30.2 µg/mL) | solubility ([13]; pH 7.4): 65 µM (≈ 30.2 µg/mL) | logd [14]: 3.1 | logd ([14]; pH 7.4): 3.1

C[C@H](C(=O)O)[C@@H](NC(=O)c1ncnc2[nH]ccc12)c1ccc(Br)cc1 [ASAP-0014722]
remaining activity at 10 µM ([1]; batch_name=ASAP-0014722-002): 77% | remaining activity at 10 µM ([2]; batch_name=ASAP-0014722-002): 98% | remaining activity at 10 µM ([3]; batch_name=ASAP-0014722-002): 103% | remaining activity at 10 µM ([4]; batch_name=ASAP-0014722-002): 99% | remaining activity at 10 µM ([5]; batch_name=ASAP-0014722-002): 99% | remaining activity at 10 µM ([6]; batch_name=ASAP-0014722-002): 90% | remaining activity at 10 µM ([7]; batch_name=ASAP-0014722-002): 99% | remaining activity at 10 µM ([8]; batch_name=ASAP-0014722-002): 88% | remaining activity at 10 µM ([9]; batch_name=ASAP-0014722-002): 95% | remaining activity at 10 µM ([10]; batch_name=ASAP-0014722-002): 90% | remaining activity at 10 µM ([11]; batch_name=ASAP-0014722-002): 97% | papp_b_to_a_mean [12, 15]: 0.274 ×10⁻⁶ cm/s | efflux_ratio [12, 15]: 8.67 | perc_recovery_a_to_b_mean [12, 15]: 89.1% and 77.4% | perc_recovery_b_to_a_mean [12, 15]: 87.2% | perc_recovery_a_to_b_inhibitor_mean ([12]; with inhibitor Cyclosporin A): 80.9% | perc_recovery_b_to_a_inhibitor_mean ([12]; with inhibitor Cyclosporin A): 84.1% | solubility_mean [13]: 358 µM (≈ 144 µg/mL) | logd ([14]; pH 7.4, In vitro LogD): 0.6

COc1ccc([C@H](Cc2nnn[nH]2)NC(=O)c2ncnc3[nH]ccc23)cc1 [ASAP-0015381]
remaining activity at 10 µM ([1]; batch_name=ASAP-0015381-001): 97% | remaining activity at 10 µM ([2]; batch_name=ASAP-0015381-001): 102% | remaining activity at 10 µM ([3]; batch_name=ASAP-0015381-001): 109% | remaining activity at 10 µM ([4]; batch_name=ASAP-0015381-001): 107% | remaining activity at 10 µM ([5]; batch_name=ASAP-0015381-001): 98% | remaining activity at 10 µM ([6]; batch_name=ASAP-0015381-001): 103% | remaining activity at 10 µM ([7]; batch_name=ASAP-0015381-001): 116% | remaining activity at 10 µM ([8]; batch_name=ASAP-0015381-001): 109% | remaining activity at 10 µM ([9]; batch_name=ASAP-0015381-001): 99% | remaining activity at 10 µM ([10]; batch_name=ASAP-0015381-001): 103% | remaining activity at 10 µM ([11]; batch_name=ASAP-0015381-001): 113% | papp_b_to_a_mean [12, 15]: 0.021 ×10⁻⁶ cm/s | efflux_ratio [12, 15]: 0.67 | perc_recovery_a_to_b_mean [12, 15]: 87.0% and 68.4% | perc_recovery_b_to_a_mean [12, 15]: 84.4% | perc_recovery_a_to_b_inhibitor_mean ([12]; with inhibitor Cyclosporin A): 83.1% | perc_recovery_b_to_a_inhibitor_mean ([12]; with inhibitor Cyclosporin A): 85.5% | solubility_mean [13]: 367 µM (≈ 134 µg/mL) | logd ([14]; pH 7.4, In vitro LogD): -0.5
